The source of these data is patent US4680397A, “Apovincaminol derivative” (Richter Gedeon Vegyeszeti Gyar Rt., priority 1984, dated 1987).

What all share (format): biochemical
The target of test [1] is phosphodiesterase isolated from rat brain. Kind of test: phosphodiesterase inhibition, enzyme isolated from rat brain. Conditions: inhibitor concentration giving 50% decrease of enzyme activity, 20 minutes incubation, read-out: 150(μmoles) rat brain. The method, then:
(§1) The model experiments were performed by means of phosphodiesterase isolated from animal tissues (rat brain, cattle brain, cattle heart). […] From the test compounds a 1 mmole stock solution was prepared with aqueous hydrochloric acid solution and different amounts of the stock solution were added to the enzyme preparates corresponding to 5×10^-6, 1×10^-5 and 5×10^-5 mole/lit. of the test compound. A solution of papaverine used as reference compound is added to the enzyme preparate in an analogous manner.
(§2) The activity of the solutions of the test compound and papaverine was expressed in percents of the control (enzyme solution without any inhibitory substance, 100%).
(§3) The tests on an enzyme isolated from cattle brain and cattle heart, respectively were carried out in an analogous way.

The target of test [2] is phosphodiesterase isolated from cattle brain. Put plainly: phosphodiesterase inhibition, enzyme isolated from cattle brain. As to conditions: inhibitor concentration giving 50% decrease of enzyme activity, 20 minutes incubation, read-out: 150(μmoles) cattle brain. The method, then:
as §1, §2, §3

Test [3] deals with phosphodiesterase isolated from cattle heart. Put plainly: phosphodiesterase inhibition, enzyme isolated from cattle heart. Conditions: inhibitor concentration giving 50% decrease of enzyme activity, 20 minutes incubation, read-out: 150(μmoles) cattle heart. The protocol:
as §1, §2, §3

Structures are written as SMILES. Counter-ions that a name gives are not always drawn.

With `CCC12C=CCN3CCc4c(n(c5cccc([N+](=O)[O-])c45)C(COC(=O)c4cc(OC)c(OC)c(OC)c4)=C1)C32` (centres unmarked) [compound 888, 9-Nitro-17,18-dehydroapovincaminol 3',4',5'-trimethoxybenzoate], the IC50 in test [1] was 30 µM; in test [2], 10 µM; in test [3] it was 5 µM.

`COc1ccc(Cc2nccc3cc(OC)c(OC)cc23)cc1OC` [papaverin hydrochloride, reference compound]: the IC50 in test [1] was 120 µM; in test [2], 100 µM; in test [3], 50 µM.

For `CCC12C=C(COC(C)=O)n3c4c(c5ccccc53)CCN(CC(OC(C)=O)C1)C42` (stereo not drawn) [compound 956, 18β-Acetoxy-apovincaminol acetate], the values for the IC50 in test [1], in test [2] and in test [3] were 30 µM, 30 µM and 25 µM, respectively.

`CCC12C=CCN3CCc4c(n(c5cccc([N+](=O)[O-])c45)C(COC(C)=O)=C1)C32` (centres unmarked) [compound 886, 9-Nitro-17,18-dehydroapovincaminol acetate]: the IC50 in test [1] came out at 50 µM.

Take `CCC12C=CCN3CCc4c(n(c5cc([N+](=O)[O-])ccc45)C(COC(C)=O)=C1)C32` (centres unmarked) [compound 887, 11-nitro-17,18-dehydro-apovincaminol acetate]: the IC50 in test [1] is 30 µM.

Take `CCC12C=CCN3CCc4c(n(c5cc([N+](=O)[O-])ccc45)C(COC(=O)c4cc(OC)c(OC)c(OC)c4)=C1)C32` (centres unmarked) [compound 889, 11-nitro-17,18-dehydro-apovincaminol 3',4',5'-tri-methoxybenzoate]: the IC50 in test [1] was determined as 10 µM; in test [2], 5 µM; in test [3], 2 µM.

For `CCC12C=C(COC(C)=O)n3c4c(c5ccccc53)CCN(CC(O)C1)C42` (stereo not drawn) [compound 1041, 18β-Hydroxy-apovincaminol acetate], the IC50 in test [1] was found to be 120 µM; in test [2], 100 µM; in test [3], 60 µM.

For the molecule `CCC12C=C(COC(=O)c3cc(OC)c(OC)c(OC)c3)n3c4c(c5ccccc53)CCN(CC(O)C1)C42` (stereo not drawn) [compound 1079, 18β-Hydroxy-apovincaminol 3',4',5'-trimethoxybenzoate], the IC50 in test [1] is 5 µM; in test [2], 5 µM; in test [3], 2 µM.
